One may read the EC50 as the concentration needed to bring the measured effect to its halfway point. What is called CC50 is the concentration that lowers cell viability or growth by half.

Read-outs that look alike come from different tables or passages of the source.

The test system of series [1] is HBV. As to the kind of experiment: HBV inhibitory activity: HBV DNA in the culture medium of HepG2.2.15 cells by q-PCR. The format is cell-based. To be noted: HepG2.2.15 cells, 6 days of compound treatment, HBV DNA in culture medium by q-PCR, highest concentration 10 μM, read-out: EC50. In outline: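 HepG2.2.15 cells in 2% FBS medium, 40,000 per well, treated 6 days with compound (medium refreshed once), eight 3-fold dilutions from 10 μM top. HBV DNA extracted from culture medium and quantified by q-PCR; EC50 averaged over repeats. Cytotoxicity run in parallel at 5,000 cells per well, top 100 μM, giving CC50.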

The nature of series [2]: Cytotoxicity determination in HepG2.2.15 cells (CCK-8). The format is cell-based. To be noted: human, 6 days of compound treatment, CCK-8, highest concentration 100 μM. In outline: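 HepG2.2.15 cells seeded at 5,000 cells/well in 2% FBS medium, incubated overnight at 37° C., then treated 6 days with compounds (8 points, 3-fold dilutions, top 100 μM), medium refreshed once midway. CCK-8 added for 2.5 h; A450 read against 630 nm reference; CC50 calculated, averaged over repeats.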

[3] abbreviates: Hepatitis B virus, HepG2.2.15, 144 h.

`COC(=O)C1=C([C@H]2C[C@@H](CO)CO2)NC(c2nccs2)=NC1c1cccc(F)c1Cl` (relative stereo) [Compound 221, (cis)-Methyl 4-(2-chloro-3-fluorophenyl)-6-(4-(hydroxymethyl)tetrahydrofuran-2-yl)-2-(thiazol-2-yl)-1,4-dihydropyrimidine-5-carboxylate]: the EC50 in series [1] (setting [3]) is 53 nM. In series [2], this molecule registered a CC50 at 6 days of 47100 nM.

For `CCOC(=O)C1=C([C@H]2CC[C@H](C(=O)O)CC2)NC(c2nccs2)=NC1c1ccc(F)cc1Br` (some centres unmarked) [Compound 156], in series [1] (setting [3]), the EC50 stood at 71 nM. Also, the CC50 at 6 days in series [2] was 34900 nM.

As for `CCOC(=O)C1=C([C@H]2CC[C@H](C(=O)O)CC2)NC(c2nccs2)=NC1c1cccc(F)c1Br` (stereo partly drawn) [Compound 150A, (trans)-4-(6-(2-bromo-3-fluorophenyl)-5-(ethoxycarbonyl)-2-(thiazol-2-yl)-3,6-dihydropyrimidin-4-yl)cyclohexane-1-carboxylic Acid], the EC50 in series [1] (setting [3]) amounted to 71 nM. In series [2], this molecule displayed a CC50 at 6 days of 28100 nM.

Regarding `COC(=O)C1=C(C2CCN(S(=O)(=O)CC(O)CO)CC2)NC(c2nccs2)=NC1c1ccc(F)cc1Cl` (single isomer, unassigned) [Compound 305A, Methyl 4-(2-chloro-4-fluorophenyl)-6-(1-((2,3-dihydroxypropyl)sulfonyl)piperidin-4-yl)-2-(thiazol-2-yl)-1,4-dihydropyrimidine-5-carboxylate], the EC50 in series [1] (setting [3]) came to 47 nM. In series [2], this molecule came in with a CC50 at 6 days of 36200 nM.

On to `CCOC(=O)C1=C(C2CCN(S(=O)(=O)c3cnn(CCCCCC(=O)O)c3)CC2)NC(c2nccs2)=NC1c1ccc(F)c(F)c1Cl` (centres unmarked) [Compound 462, 6-(4-((4-(6-(2-Chloro-3,4-difluorophenyl)-5-(ethoxycarbonyl)-2-(thiazol-2-yl)-3,6-dihydropyrimidin-4-yl)piperidin-1-yl)sulfonyl)-1H-pyrazol-1-yl)hexanoic Acid], for which, in series [1] (setting [3]), the EC50 came to 24 nM. In addition, in series [2], the midpoint of cytotoxicity, the CC50 at 6 days, lay at 6600 nM.

With `COC(=O)C1=C([C@H]2CC[C@H](NS(=O)(=O)CCO)CC2)NC(c2nccs2)=NC1c1ccc(F)cc1Cl` (relative stereo) [Compound 187B, (trans)-Methyl 4-(2-chloro-4-fluorophenyl)-6-(4-(2-hydroxyethylsulfonamido)cyclohexyl)-2-(thiazol-2-yl)-1,4-dihydropyrimidine-5-carboxylate], the EC50 in series [1] (setting [3]) is 32 nM. The molecule further had a CC50 at 6 days in series [2] of 18900 nM.

Turning to `CCOC(=O)C1=C([C@H]2CC[C@H](C(=O)O)CC2)NC(c2nccs2)=NC1c1ccccc1Br` (stereo partly drawn) [Compound 148A, (trans)-4-(6-(2-bromophenyl)-5-(ethoxycarbonyl)-2-(thiazol-2-yl)-3,6-dihydropyrimidin-4-yl)cyclohexane-1-carboxylic Acid], the EC50 in series [1] (setting [3]) came out at 97 nM. The molecule further yielded a CC50 at 6 days in series [2] of 29400 nM.

As for `COC(=O)C1=C(C2CCN(S(=O)(=O)C(C)(C)C(=O)O)CC2)NC(c2nccs2)=NC1c1ccc(F)cc1Cl` (centres unmarked) [Compound 7, 2-((4-(6-(2-Chloro-4-fluorophenyl)-5-(methoxycarbonyl)-2-(thiazol-2-yl)-3,6-dihydro-pyrimidin-4-yl)piperidin-1-yl)sulfonyl)-2-methylpropanoic Acid], in series [1] (setting [3]), the EC50 was found to be 168 nM. The CC50 at 6 days in series [2] was greater than 100000 nM.

As for `CCOC(=O)C1=C(C2CCN(S(=O)(=O)C3CC(C)(C(=O)O)C3)CC2)NC(c2nccs2)=NC1c1ccc(F)cc1C` (stereo not drawn) [Compound 420A, (trans)-3-((4-(5-(Ethoxycarbonyl)-6-(4-fluoro-2-methylphenyl)-2-(thiazol-2-yl)-3,6-dihydropyrimidin-4-yl)piperidin-1-yl)sulfonyl)-1-methylcyclobutanecarboxylic Acid], the EC50 in series [1] (setting [3]) turned out to be 76 nM. In addition, the midpoint of cytotoxicity in series [2], the CC50 at 6 days, lay at 20800 nM.

Consider `COC(=O)C1=C([C@H]2C[C@@H](NS(C)(=O)=O)C2)NC(c2nccs2)=NC1c1ccc(F)cc1Cl` (single isomer, unassigned) [Compound 206D, (cis)-Methyl 4-(2-chloro-4-fluorophenyl)-6-(3-(methylsulfonamido)cyclobutyl)-2-(thiazol-2-yl)-1,4-dihydropyrimidine-5-carboxylate], for which the EC50 in series [1] (setting [3]) was 389 nM. In series [2], this molecule registered a CC50 at 6 days of 39200 nM.

With `CCOC(=O)C1=C([C@@H]2CCN(S(C)(=O)=O)[C@@H](CO)C2)NC(c2nccs2)=NC1c1ccc(F)cc1Cl` (single isomer, unassigned) [Compound 379C, ethyl 4-(2-chloro-4-fluorophenyl)-6-((trans)-2-(hydroxymethyl)-1-(methylsulfonyl)piperidin-4-yl)-2-(thiazol-2-yl)-1,4-dihydropyrimidine-5-carboxylate], the EC50 in series [1] (setting [3]) worked out at 55 nM. In series [2], this molecule returned a CC50 at 6 days of 32600 nM.

`CCOC(=O)C1=C([C@H]2CC[C@H](C(N)=O)CC2)NC(c2nccs2)=NC1c1ccc(F)cc1Cl` (stereo partly drawn) [Compound 163, (trans)-ethyl 6-(−4-carbamoylcyclohexyl)-4-(2-chloro-4-fluorophenyl)-2-(thiazol-2-yl)-1,4-dihydropyrimidine-5-carboxylate]: the EC50 in series [1] (setting [3]) amounted to 65 nM. It took 23900 nM to reach half-maximal cytotoxicity in series [2] (CC50 at 6 days).

As to `COC(=O)C1=C(C2CCN(S(=O)(=O)C[C@H]3CC[C@H](C(=O)O)CC3)CC2)NC(c2nccs2)=NC1c1cccc(F)c1C` (stereo partly drawn) [Compound 444b, (trans)-4-(((4-(6-(3-Fluoro-2-methylphenyl)-5-(methoxycarbonyl)-2-(thiazol-2-yl)-3,6-dihydropyrimidin-4-yl)piperidin-1-yl)sulfonyl)methyl)cyclohexanecarboxylic Acid], the EC50 in series [1] (setting [3]) is 59 nM. The molecule further showed a CC50 at 6 days in series [2] of 8300 nM.

As to `COC(=O)C1=C(C2CCN(C(=O)CO)CC2)NC(c2nccs2)=NC1c1ccc(F)cc1Cl` (single isomer, unassigned) [Compound 122B, Methyl 4-(2-chloro-4-fluorophenyl)-6-(1-(2-hydroxyacetyl)-piperidin-4-yl)-2-(thiazol-2-yl)-1,4-dihydropyrimidine-5-carboxylate], in series [1] (setting [3]), the EC50 was 57 nM. Half-maximal cytotoxicity in series [2] (CC50 at 6 days) was put at 31600 nM.

Take `COC(=O)C1=C(C2CCN(S(=O)(=O)[C@H]3CC[C@H](C(=O)O)C3)CC2)NC(c2nccs2)=NC1c1ccc(F)cc1Cl` (relative stereo) [Compound 311A, (trans)-3-((4-(6-(2-Chloro-4-fluorophenyl)-5-(methoxycarbonyl)-2-(thiazol-2-yl)-3,6-dihydropyrimidin-4-yl)piperidin-1-yl)sulfonyl)-cyclopentanecarboxylic Acid]: the EC50 in series [1] (setting [3]) was found to be 89 nM. The CC50 at 6 days in series [2] was greater than 100000 nM.

For `CCOC(=O)C1=C(C2[C@H]3CN(S(C)(=O)=O)C[C@@H]23)NC(c2nccs2)=NC1c1ccc(F)cc1Cl` (single isomer, unassigned) [Compound 41A], the EC50 in series [1] (setting [3]) was determined as 514 nM. In series [2], this molecule had a CC50 at 6 days of 11600 nM.

Turning to `COC(=O)C1=C(C2CCN(S(=O)(=O)CC(=O)O)C2)NC(c2nccs2)=NC1c1ccc(F)cc1Cl` (single isomer, unassigned) [Compound 214A, 2-((−3-(−6-(2-Chloro-4-fluorophenyl)-5-(methoxycarbonyl)-2-(thiazol-2-yl)-3,6-dihydropyrimidin-4-yl)pyrrolidin-1-yl)sulfonyl)acetic Acid], the EC50 in series [1] was 196 nM. This molecule yielded a CC50 at 6 days in series [2] greater than 100000 nM.

Regarding `COC(=O)C1=C([C@H]2CC[C@H](NS(N)(=O)=O)CC2)NC(c2nccs2)=NC1c1ccc(F)c(F)c1Cl` (relative stereo) [Compound 238, (trans)-Methyl 4-(2-chloro-3,4-difluorophenyl)-6-(4-(sulfamoylamino)cyclohexyl)-2-(thiazol-2-yl)-1,4-dihydropyrimidine-5-carboxylate], the EC50 in series [1] (setting [3]) was 53 nM. In series [2], this molecule registered a CC50 at 6 days of 13400 nM.

`COC(=O)C1=C(C2(F)CCN(S(C)(=O)=O)CC2)NC(c2nccs2)=NC1c1cccc(F)c1Cl` (centres unmarked) [Compound 36, Methyl 4-(2-chloro-3-fluorophenyl)-6-(4-fluoro-1-(methylsulfonyl)-piperidin-4-yl)-2-(thiazol-2-yl)-1,4-dihydropyrimidine-5-carboxylate]: in series [1] (setting [3]), the EC50 came out at 153 nM. The molecule further displayed a CC50 at 6 days in series [2] of 20700 nM.

In the case of `COC(=O)C1=C(C2CCN(S(=O)(=O)[C@H]3C[C@H](C(=O)O)C3)CC2)NC(c2nccs2)=NC1c1cccc(F)c1Cl` (stereo partly drawn) [Compound 331C, (trans)-3-((4-(6-(2-Chloro-3-fluorophenyl)-5-(methoxycarbonyl)-2-(thiazol-2-yl)-3,6-dihydropyrimidin-4-yl)piperidin-1-yl)sulfonyl)cyclobutane-carboxylic Acid], in series [1] (setting [3]), the EC50 came to 192 nM. The molecule also had a CC50 at 6 days in series [2] greater than 100000 nM.

In the case of `COC(=O)CCS(=O)(=O)N1CCC(C2=C(C(=O)OC)C(c3cccc(F)c3Cl)N=C(c3nccs3)N2)CC1` (single isomer, unassigned) [Compound 113Y, 4-(2-Chloro-3-fluoro-phenyl)-6-[1-(2-methoxycarbonyl-ethane-sulfonyl)-piperidin-4-yl]-2-thiazol-2-yl-1,4-dihydro-pyrimidine-5-carboxylic Acid Methyl Ester], the EC50 in series [1] (setting [3]) amounted to 966 nM. Moreover, in series [2], it took 11800 nM to reach half-maximal cytotoxicity (CC50 at 6 days).

Regarding `COC(=O)C1=C(C2CCN(S(=O)(=O)c3ccccn3)CC2)NC(c2nccs2)=NC1c1cccc(F)c1Cl` (single isomer, unassigned) [Compound 116B, Methyl 4-(2-chloro-3-fluorophenyl)-6-(1-(pyridin-2-ylsulfonyl)-piperidin-4-yl)-2-(thiazol-2-yl)-1,4-dihydropyrimidine-5-carboxylate], the EC50 in series [1] (setting [3]) was 207 nM. In series [2], the CC50 at 6 days was determined as 71300 nM.

For the origin of these results see patent US11639350B2, “Heteroaryldihydropyrimidine derivatives and methods of treating hepatitis B infections” (Janssen Pharmaceutica NV, priority 2018, dated 2023).
